Assay: Hydroxocobalamin-containing solutions
Type: physicochemical
Procedure: A variety of solutions containing hydroxocobalamin (HO-Cbl) were tested. The excipients tested in these studies were the same as those used above: (a) 15% ethanol; (b) 20% ethanol; (c) 20% propylene glycol; (d) 40% propylene glycol; (e) 15% ethanol and 20% propylene glycol; and (f) 20% ethanol and 40% propylene glycol. Here, however, three challenge amounts were tested (˜16, 40, and 81 mg/ml HO-Cbl) and the time course was slightly longer, with measurements being made on Day 3 and Day 5. The OH-Cbl was solubilized at room temperature, as it dissolved readily in the excipients tested. If necessary or desired, the solutions can be mixed by shaking briefly (using, for example, a vortex or other agitation for a few seconds (e.g., 5-20 seconds) to a minute or so (e.g., 1-3 minutes). Following suitable dilution, the absorbance at […] was measured.

Q: With `C/C1=C2/[N-][C@H]([C@H](CC(N)=O)[C@@]2(C)CCC(=O)NC[C@@H](C)OP(=O)([O-])O[C@H]2[C@@H](O)[C@@H](n3cnc4cc(C)c(C)cc43)O[C@@H]2CO)[C@]2(C)N=C(/C(C)=C3N=C(/C=C4N=C1[C@@H](CCC(N)=O)C\4(C)C)[C@@H](CCC(N)=O)[C@]\3(C)CC(N)=O)[C@@H](CCC(N)=O)[C@]2(C)CC(N)=O.[Co+3].[OH-]` [OH-Cbl, hydroxocobalamin] as the compound, how does the “concentrations of HO-Cbl versus control (water) values” (any of the solutions tested, any of the three challenge amounts) read?
A: did not substantially exceed control values

Q: What about the “Conc of OH-Cbl” value (challenge 16.18 mg/mL, ethanol 0%, PG 0%, Day 0) of the same compound?
A: 0 µg/mL

Q: What about the “Conc of OH-Cbl” value (challenge 16.18 mg/mL, ethanol 0%, PG 0%, Day 3) of the same compound?
A: 16830 µg/mL

Q: And the “Conc of OH-Cbl” value (challenge 16.18 mg/mL, ethanol 0%, PG 0%, Day 5)?
A: 16930 µg/mL

Q: And the “Conc of OH-Cbl” value (challenge 16.18 mg/mL, ethanol 0%, PG 20%, Day 0)?
A: 0 µg/mL

Q: What about the “Conc of OH-Cbl” value (challenge 16.18 mg/mL, ethanol 0%, PG 20%, Day 3) of the same compound?
A: 17100 µg/mL

Q: And the “Conc of OH-Cbl” value (challenge 16.18 mg/mL, ethanol 0%, PG 20%, Day 5)?
A: 17310 µg/mL

Q: What about the “Conc of OH-Cbl” value (challenge 16.18 mg/mL, ethanol 0%, PG 40%, Day 0) of the same compound?
A: 0 µg/mL

Q: What about the “Conc of OH-Cbl” value (challenge 16.18 mg/mL, ethanol 0%, PG 40%, Day 3) of the same compound?
A: 16780 µg/mL

Q: What about the “Conc of OH-Cbl” value (challenge 16.18 mg/mL, ethanol 0%, PG 40%, Day 5) of the same compound?
A: 17100 µg/mL

Q: What about the “Conc of OH-Cbl” value (challenge 16.18 mg/mL, ethanol 15%, PG 0%, Day 0) of the same compound?
A: 0 µg/mL

Q: And the “Conc of OH-Cbl” value (challenge 16.18 mg/mL, ethanol 15%, PG 0%, Day 3)?
A: 16670 µg/mL

Q: What about the “Conc of OH-Cbl” value (challenge 16.18 mg/mL, ethanol 15%, PG 0%, Day 5) of the same compound?
A: 17060 µg/mL

Q: And the “Conc of OH-Cbl” value (challenge 16.18 mg/mL, ethanol 15%, PG 20%, Day 0)?
A: 0 µg/mL

Q: What about the “Conc of OH-Cbl” value (challenge 16.18 mg/mL, ethanol 15%, PG 20%, Day 3) of the same compound?
A: 16940 µg/mL

Q: And the “Conc of OH-Cbl” value (challenge 16.18 mg/mL, ethanol 15%, PG 20%, Day 5)?
A: 17440 µg/mL

Q: And the “Conc of OH-Cbl” value (challenge 16.18 mg/mL, ethanol 20%, PG 0%, Day 0)?
A: 0 µg/mL

Q: What about the “Conc of OH-Cbl” value (challenge 16.18 mg/mL, ethanol 20%, PG 0%, Day 3) of the same compound?
A: 17050 µg/mL

Q: And the “Conc of OH-Cbl” value (challenge 16.18 mg/mL, ethanol 20%, PG 0%, Day 5)?
A: 17140 µg/mL

Q: And the “Conc of OH-Cbl” value (challenge 16.18 mg/mL, ethanol 20%, PG 40%, Day 0)?
A: 0 µg/mL

Q: What about the “Conc of OH-Cbl” value (challenge 16.18 mg/mL, ethanol 20%, PG 40%, Day 3) of the same compound?
A: 16250 µg/mL

Q: And the “Conc of OH-Cbl” value (challenge 16.18 mg/mL, ethanol 20%, PG 40%, Day 5)?
A: 16590 µg/mL

Q: What about the “Conc of OH-Cbl” value (challenge 40.45 mg/mL, ethanol 0%, PG 0%, Day 0) of the same compound?
A: 0 µg/mL

Q: What about the “Conc of OH-Cbl” value (challenge 40.45 mg/mL, ethanol 0%, PG 0%, Day 3) of the same compound?
A: 41900 µg/mL

Q: What about the “Conc of OH-Cbl” value (challenge 40.45 mg/mL, ethanol 0%, PG 0%, Day 5) of the same compound?
A: 41680 µg/mL

Q: And the “Conc of OH-Cbl” value (challenge 40.45 mg/mL, ethanol 0%, PG 20%, Day 0)?
A: 0 µg/mL

Q: What about the “Conc of OH-Cbl” value (challenge 40.45 mg/mL, ethanol 0%, PG 20%, Day 3) of the same compound?
A: 41680 µg/mL

Q: What about the “Conc of OH-Cbl” value (challenge 40.45 mg/mL, ethanol 0%, PG 20%, Day 5) of the same compound?
A: 41470 µg/mL

Q: What about the “Conc of OH-Cbl” value (challenge 40.45 mg/mL, ethanol 0%, PG 40%, Day 0) of the same compound?
A: 0 µg/mL

Q: What about the “Conc of OH-Cbl” value (challenge 40.45 mg/mL, ethanol 0%, PG 40%, Day 3) of the same compound?
A: 41790 µg/mL

Q: And the “Conc of OH-Cbl” value (challenge 40.45 mg/mL, ethanol 0%, PG 40%, Day 5)?
A: 41790 µg/mL

Q: And the “Conc of OH-Cbl” value (challenge 40.45 mg/mL, ethanol 15%, PG 0%, Day 0)?
A: 0 µg/mL

Q: What about the “Conc of OH-Cbl” value (challenge 40.45 mg/mL, ethanol 15%, PG 0%, Day 3) of the same compound?
A: 41150 µg/mL

Q: What about the “Conc of OH-Cbl” value (challenge 40.45 mg/mL, ethanol 15%, PG 0%, Day 5) of the same compound?
A: 41470 µg/mL

Q: What about the “Conc of OH-Cbl” value (challenge 40.45 mg/mL, ethanol 15%, PG 20%, Day 0) of the same compound?
A: 0 µg/mL

Q: And the “Conc of OH-Cbl” value (challenge 40.45 mg/mL, ethanol 15%, PG 20%, Day 3)?
A: 41040 µg/mL

Q: And the “Conc of OH-Cbl” value (challenge 40.45 mg/mL, ethanol 15%, PG 20%, Day 5)?
A: 42220 µg/mL

Q: And the “Conc of OH-Cbl” value (challenge 40.45 mg/mL, ethanol 20%, PG 0%, Day 0)?
A: 0 µg/mL

Q: And the “Conc of OH-Cbl” value (challenge 40.45 mg/mL, ethanol 20%, PG 0%, Day 3)?
A: 41580 µg/mL

Q: And the “Conc of OH-Cbl” value (challenge 40.45 mg/mL, ethanol 20%, PG 0%, Day 5)?
A: 41040 µg/mL

Q: What about the “Conc of OH-Cbl” value (challenge 40.45 mg/mL, ethanol 20%, PG 40%, Day 0) of the same compound?
A: 0 µg/mL

Q: What about the “Conc of OH-Cbl” value (challenge 40.45 mg/mL, ethanol 20%, PG 40%, Day 3) of the same compound?
A: 41360 µg/mL

Q: What about the “Conc of OH-Cbl” value (challenge 40.45 mg/mL, ethanol 20%, PG 40%, Day 5) of the same compound?
A: 41580 µg/mL

Q: And the “Conc of OH-Cbl” value (challenge 80.90 mg/mL, ethanol 0%, PG 0%, Day 0)?
A: 0 µg/mL

Q: And the “Conc of OH-Cbl” value (challenge 80.90 mg/mL, ethanol 0%, PG 0%, Day 3)?
A: 81020 µg/mL

Q: And the “Conc of OH-Cbl” value (challenge 80.90 mg/mL, ethanol 0%, PG 0%, Day 5)?
A: 80800 µg/mL

Q: What about the “Conc of OH-Cbl” value (challenge 80.90 mg/mL, ethanol 0%, PG 20%, Day 0) of the same compound?
A: 0 µg/mL

Q: What about the “Conc of OH-Cbl” value (challenge 80.90 mg/mL, ethanol 0%, PG 20%, Day 3) of the same compound?
A: 83800 µg/mL

Q: And the “Conc of OH-Cbl” value (challenge 80.90 mg/mL, ethanol 0%, PG 20%, Day 5)?
A: 82090 µg/mL

Q: What about the “Conc of OH-Cbl” value (challenge 80.90 mg/mL, ethanol 0%, PG 40%, Day 0) of the same compound?
A: 0 µg/mL

Q: What about the “Conc of OH-Cbl” value (challenge 80.90 mg/mL, ethanol 0%, PG 40%, Day 3) of the same compound?
A: 81870 µg/mL

Q: And the “Conc of OH-Cbl” value (challenge 80.90 mg/mL, ethanol 0%, PG 40%, Day 5)?
A: 82730 µg/mL

Q: What about the “Conc of OH-Cbl” value (challenge 80.90 mg/mL, ethanol 15%, PG 0%, Day 0) of the same compound?
A: 0 µg/mL

Q: What about the “Conc of OH-Cbl” value (challenge 80.90 mg/mL, ethanol 15%, PG 0%, Day 3) of the same compound?
A: 82730 µg/mL

Q: What about the “Conc of OH-Cbl” value (challenge 80.90 mg/mL, ethanol 15%, PG 0%, Day 5) of the same compound?
A: 82940 µg/mL

Q: What about the “Conc of OH-Cbl” value (challenge 80.90 mg/mL, ethanol 15%, PG 20%, Day 0) of the same compound?
A: 0 µg/mL

Q: And the “Conc of OH-Cbl” value (challenge 80.90 mg/mL, ethanol 15%, PG 20%, Day 3)?
A: 81230 µg/mL

Q: And the “Conc of OH-Cbl” value (challenge 80.90 mg/mL, ethanol 15%, PG 20%, Day 5)?
A: 80160 µg/mL

Q: What about the “Conc of OH-Cbl” value (challenge 80.90 mg/mL, ethanol 20%, PG 0%, Day 0) of the same compound?
A: 0 µg/mL

Q: And the “Conc of OH-Cbl” value (challenge 80.90 mg/mL, ethanol 20%, PG 0%, Day 3)?
A: 82090 µg/mL

Q: What about the “Conc of OH-Cbl” value (challenge 80.90 mg/mL, ethanol 20%, PG 0%, Day 5) of the same compound?
A: 80590 µg/mL

Q: What about the “Conc of OH-Cbl” value (challenge 80.90 mg/mL, ethanol 20%, PG 40%, Day 0) of the same compound?
A: 0 µg/mL

Q: What about the “Conc of OH-Cbl” value (challenge 80.90 mg/mL, ethanol 20%, PG 40%, Day 3) of the same compound?
A: 82940 µg/mL

Q: What about the “Conc of OH-Cbl” value (challenge 80.90 mg/mL, ethanol 20%, PG 40%, Day 5) of the same compound?
A: 82730 µg/mL

From US20080039422A1, “Vitamin B12-Containing Compositions and Methods of Use” (Transition Therapeutics Inc., priority 2004, published 2008)
